Data: ChEMBL document CHEMBL4507281, “Data for DCP probe BI-4394” (2021)

Columns and labels:
D(1B) dopamine receptor = D(1B) dopamine receptor (Homo sapiens, UniProt P21918); assay: GPCRScan assay: inhibition of D5; design: radioligand conc. used [nm] 2.0 – 3.0, parental cells HEKT
[1] = system: Tyrosine-protein kinase ABL1 (Homo sapiens), P00519 [F317L]; settings: Compound concentration 100.0 nM
[2] = molecular target: Activin receptor type-2A (Homo sapiens) (UniProt P27037); settings: Compound concentration 100.0 nM
[3] = molecular target: Activin receptor type-2B (Homo sapiens) (UniProt Q13705); settings: Compound concentration 100.0 nM
[4] = molecular target: Tyrosine-protein kinase Blk (Homo sapiens) (UniProt P51451); settings: Compound concentration 100.0 nM
[5] = molecular target: Serine/threonine-protein kinase B-raf (Homo sapiens) (UniProt P15056); settings: Compound concentration 100.0 nM
[6] = molecular target: Tyrosine-protein kinase BTK (Homo sapiens) (UniProt Q06187); settings: Compound concentration 100.0 nM
[7] = molecular target: Cyclin-dependent kinase 2 (Homo sapiens) (UniProt P24941); settings: Compound concentration 100.0 nM
[8] = molecular target: Cyclin-dependent kinase 8 (Homo sapiens) (UniProt P49336); settings: Compound concentration 100.0 nM
[9] = molecular target: Dual specificity protein kinase CLK4 (Homo sapiens) (UniProt Q9HAZ1); settings: Compound concentration 100.0 nM
[10] = molecular target: Megakaryocyte-associated tyrosine-protein kinase (Homo sapiens) (UniProt P42679); settings: Compound concentration 100.0 nM
[11] = molecular target: Epithelial discoidin domain-containing receptor 1 (Homo sapiens) (UniProt Q08345); settings: Compound concentration 100.0 nM
[12] = system: Epidermal growth factor receptor (Homo sapiens), P00533 [UNDEFINED MUTATION]; settings: Compound concentration 100.0 nM
[13] = system: Epidermal growth factor receptor (Homo sapiens), P00533 [L858R]; settings: Compound concentration 100.0 nM
[14] = system: Epidermal growth factor receptor (Homo sapiens), P00533 [T790M]; settings: Compound concentration 100.0 nM
[15] = molecular target: Tyrosine-protein kinase Fes/Fps (Homo sapiens) (UniProt P07332); settings: Compound concentration 100.0 nM
[16] = molecular target: Cyclin-G-associated kinase (Homo sapiens) (UniProt O14976); settings: Compound concentration 100.0 nM
[17] = molecular target: Rhodopsin kinase GRK7 (Homo sapiens) (UniProt Q8WTQ7); settings: Compound concentration 100.0 nM
[18] = molecular target: T1, Interleukin-1 receptor-associated kinase 4 (Homo sapiens) (UniProt Q9NWZ3); settings: Compound concentration 100.0 nM
T1 sequence (whole entry): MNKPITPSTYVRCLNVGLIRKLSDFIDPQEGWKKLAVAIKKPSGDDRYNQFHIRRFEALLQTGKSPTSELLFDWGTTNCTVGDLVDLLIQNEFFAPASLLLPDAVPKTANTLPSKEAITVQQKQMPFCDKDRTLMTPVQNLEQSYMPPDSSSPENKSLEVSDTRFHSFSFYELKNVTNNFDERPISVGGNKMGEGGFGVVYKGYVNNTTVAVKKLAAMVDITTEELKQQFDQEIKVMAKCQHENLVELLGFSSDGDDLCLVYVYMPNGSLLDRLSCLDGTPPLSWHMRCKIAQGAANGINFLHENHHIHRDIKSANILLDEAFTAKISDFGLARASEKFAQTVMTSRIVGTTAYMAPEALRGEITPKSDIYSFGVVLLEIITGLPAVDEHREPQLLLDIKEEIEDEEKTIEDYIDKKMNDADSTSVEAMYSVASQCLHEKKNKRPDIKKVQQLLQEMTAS

[19] = molecular target: Serine/threonine-protein kinase STK11 (Homo sapiens) (UniProt Q15831); settings: Compound concentration 100.0 nM
[20] = molecular target: Leukocyte tyrosine kinase receptor (Homo sapiens) (UniProt P29376); settings: Compound concentration 100.0 nM
[21] = molecular target: Mitogen-activated protein kinase kinase kinase 2 (Homo sapiens) (UniProt Q9Y2U5); settings: Compound concentration 100.0 nM
[22] = molecular target: Tyrosine-protein kinase Mer (Homo sapiens) (UniProt Q12866); settings: Compound concentration 100.0 nM
[23] = molecular target: Mitogen-activated protein kinase kinase kinase 9 (Homo sapiens) (UniProt P80192); settings: Compound concentration 100.0 nM
[24] = molecular target: Serine/threonine-protein kinase 26 (Homo sapiens) (UniProt Q9P289); settings: Compound concentration 100.0 nM
[25] = molecular target: Serine/threonine-protein kinase Nek3 (Homo sapiens) (UniProt P51956); settings: Compound concentration 100.0 nM
[26] = molecular target: Phosphorylase b kinase gamma catalytic chain, skeletal muscle/heart isoform (Homo sapiens) (UniProt Q16816); settings: Compound concentration 100.0 nM
[27] = system: Phosphatidylinositol 4,5-bisphosphate 3-kinase catalytic subunit alpha isoform (Homo sapiens), P42336 [E545A]; settings: Compound concentration 100.0 nM
[28] = molecular target: Phosphatidylinositol 4-phosphate 5-kinase type-1 gamma (Homo sapiens) (UniProt O60331); settings: Compound concentration 100.0 nM
[29] = molecular target: Serine/threonine-protein kinase PLK3 (Homo sapiens) (UniProt Q9H4B4); settings: Compound concentration 100.0 nM
[30] = molecular target: cGMP-dependent protein kinase 2 (Homo sapiens) (UniProt Q13237); settings: Compound concentration 100.0 nM
[31] = molecular target: Ribosomal protein S6 kinase alpha-5 (Homo sapiens) (UniProt O75582); settings: Compound concentration 100.0 nM
[32] = molecular target: Ribosomal protein S6 kinase beta-1 (Homo sapiens) (UniProt P23443); settings: Compound concentration 100.0 nM
[33] = molecular target: SNF-related serine/threonine-protein kinase (Homo sapiens) (UniProt Q9NRH2); settings: Compound concentration 100.0 nM
[34] = molecular target: Serine/threonine-protein kinase 36 (Homo sapiens) (UniProt Q9NRP7); settings: Compound concentration 100.0 nM
[35] = molecular target: High affinity nerve growth factor receptor (Homo sapiens) (UniProt P04629); settings: Compound concentration 100.0 nM
[36] = molecular target: Tyrosine-protein kinase receptor TYRO3 (Homo sapiens) (UniProt Q06418); settings: Compound concentration 100.0 nM
[37] = molecular target: Phosphatidylinositol 3-kinase catalytic subunit type 3 (Homo sapiens) (UniProt Q8NEB9); settings: Compound concentration 100.0 nM
[38] = molecular target: 5-hydroxytryptamine receptor 1E (Homo sapiens) (UniProt P28566); settings: Compound concentration 10.0 uM
Rattus norvegicus = species on record: Rattus norvegicus; settings: Compound concentration 10.0 uM

Chain of Serine/threonine-protein kinase Nek3 (Homo sapiens) (P51956 whole entry, canonical isoform): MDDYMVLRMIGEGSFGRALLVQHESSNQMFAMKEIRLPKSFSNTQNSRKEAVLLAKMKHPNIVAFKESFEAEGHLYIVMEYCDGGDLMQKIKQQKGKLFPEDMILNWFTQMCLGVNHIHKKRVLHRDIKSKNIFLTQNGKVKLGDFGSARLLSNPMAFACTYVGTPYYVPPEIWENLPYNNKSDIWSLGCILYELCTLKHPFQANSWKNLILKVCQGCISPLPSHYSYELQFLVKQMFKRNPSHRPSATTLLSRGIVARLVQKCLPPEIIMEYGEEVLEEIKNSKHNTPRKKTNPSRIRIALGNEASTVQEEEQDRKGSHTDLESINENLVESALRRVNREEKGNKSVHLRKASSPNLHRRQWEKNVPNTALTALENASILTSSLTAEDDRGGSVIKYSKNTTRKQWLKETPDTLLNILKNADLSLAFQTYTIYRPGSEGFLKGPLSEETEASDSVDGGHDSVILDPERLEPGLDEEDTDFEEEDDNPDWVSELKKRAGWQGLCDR
Chain of Tyrosine-protein kinase Mer (Homo sapiens) (Q12866 whole entry): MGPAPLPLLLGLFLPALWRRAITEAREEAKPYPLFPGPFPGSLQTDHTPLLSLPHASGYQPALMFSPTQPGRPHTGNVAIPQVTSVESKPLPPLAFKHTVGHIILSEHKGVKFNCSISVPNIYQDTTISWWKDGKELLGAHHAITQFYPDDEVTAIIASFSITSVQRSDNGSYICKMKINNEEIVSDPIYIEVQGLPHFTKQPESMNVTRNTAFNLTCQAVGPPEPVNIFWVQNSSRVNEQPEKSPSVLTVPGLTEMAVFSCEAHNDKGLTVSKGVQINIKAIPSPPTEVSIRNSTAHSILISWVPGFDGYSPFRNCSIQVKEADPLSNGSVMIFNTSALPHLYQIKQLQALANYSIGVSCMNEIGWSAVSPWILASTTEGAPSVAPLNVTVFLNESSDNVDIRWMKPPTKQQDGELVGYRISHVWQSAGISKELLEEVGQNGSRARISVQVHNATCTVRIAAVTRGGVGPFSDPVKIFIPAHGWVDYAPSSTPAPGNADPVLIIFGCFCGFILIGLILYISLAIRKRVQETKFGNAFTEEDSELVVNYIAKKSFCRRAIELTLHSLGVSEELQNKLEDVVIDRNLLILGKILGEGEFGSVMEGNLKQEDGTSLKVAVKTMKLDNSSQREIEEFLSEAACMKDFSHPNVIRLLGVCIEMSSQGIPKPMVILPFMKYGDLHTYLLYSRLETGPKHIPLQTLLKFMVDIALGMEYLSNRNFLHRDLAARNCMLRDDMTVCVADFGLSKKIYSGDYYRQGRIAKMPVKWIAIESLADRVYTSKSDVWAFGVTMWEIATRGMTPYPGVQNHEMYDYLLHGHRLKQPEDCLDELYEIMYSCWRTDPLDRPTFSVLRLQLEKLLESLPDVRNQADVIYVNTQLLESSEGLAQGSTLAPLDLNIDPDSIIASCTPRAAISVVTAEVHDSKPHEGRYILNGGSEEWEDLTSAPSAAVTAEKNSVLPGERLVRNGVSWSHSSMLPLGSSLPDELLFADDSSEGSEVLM
Chain of Ribosomal protein S6 kinase beta-1 (Homo sapiens) (P23443 whole entry, looked up): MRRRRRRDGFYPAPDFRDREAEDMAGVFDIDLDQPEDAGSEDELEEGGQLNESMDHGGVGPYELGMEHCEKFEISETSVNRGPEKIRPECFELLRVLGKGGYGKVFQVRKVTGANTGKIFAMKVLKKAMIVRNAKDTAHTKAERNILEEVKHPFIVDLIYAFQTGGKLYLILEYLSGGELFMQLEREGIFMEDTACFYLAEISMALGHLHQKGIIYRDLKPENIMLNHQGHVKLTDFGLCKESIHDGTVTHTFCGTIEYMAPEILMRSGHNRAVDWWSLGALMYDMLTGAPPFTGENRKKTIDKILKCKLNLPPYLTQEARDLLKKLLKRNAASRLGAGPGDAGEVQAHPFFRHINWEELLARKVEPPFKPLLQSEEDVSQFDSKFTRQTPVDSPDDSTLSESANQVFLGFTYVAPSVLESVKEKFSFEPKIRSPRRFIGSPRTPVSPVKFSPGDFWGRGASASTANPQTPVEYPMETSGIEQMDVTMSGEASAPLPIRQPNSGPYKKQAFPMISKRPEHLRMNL
Chain of Tyrosine-protein kinase Fes/Fps (Homo sapiens) (P07332 whole entry): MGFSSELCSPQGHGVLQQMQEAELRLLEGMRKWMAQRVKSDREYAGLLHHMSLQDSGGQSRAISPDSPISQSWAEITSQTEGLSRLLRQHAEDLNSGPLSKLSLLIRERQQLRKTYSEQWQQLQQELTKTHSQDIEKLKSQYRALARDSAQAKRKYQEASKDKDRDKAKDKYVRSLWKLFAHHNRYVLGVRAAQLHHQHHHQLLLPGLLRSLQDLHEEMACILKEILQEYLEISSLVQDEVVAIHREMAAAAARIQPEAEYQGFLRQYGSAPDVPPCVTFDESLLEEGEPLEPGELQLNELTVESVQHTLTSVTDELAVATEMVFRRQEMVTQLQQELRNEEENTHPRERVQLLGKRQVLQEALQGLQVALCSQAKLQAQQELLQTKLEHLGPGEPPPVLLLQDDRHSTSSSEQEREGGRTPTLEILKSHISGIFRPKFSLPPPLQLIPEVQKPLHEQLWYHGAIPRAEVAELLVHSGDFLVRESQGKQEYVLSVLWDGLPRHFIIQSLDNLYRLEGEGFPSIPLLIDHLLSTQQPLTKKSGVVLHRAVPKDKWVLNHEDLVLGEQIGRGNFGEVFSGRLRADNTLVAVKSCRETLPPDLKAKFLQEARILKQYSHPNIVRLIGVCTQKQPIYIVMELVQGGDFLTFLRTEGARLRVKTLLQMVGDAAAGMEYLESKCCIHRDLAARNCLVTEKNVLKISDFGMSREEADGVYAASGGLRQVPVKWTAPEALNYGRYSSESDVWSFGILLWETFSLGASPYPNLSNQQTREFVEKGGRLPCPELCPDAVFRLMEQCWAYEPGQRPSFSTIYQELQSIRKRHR
Chain of Rhodopsin kinase GRK7 (Homo sapiens) (Q8WTQ7 whole entry): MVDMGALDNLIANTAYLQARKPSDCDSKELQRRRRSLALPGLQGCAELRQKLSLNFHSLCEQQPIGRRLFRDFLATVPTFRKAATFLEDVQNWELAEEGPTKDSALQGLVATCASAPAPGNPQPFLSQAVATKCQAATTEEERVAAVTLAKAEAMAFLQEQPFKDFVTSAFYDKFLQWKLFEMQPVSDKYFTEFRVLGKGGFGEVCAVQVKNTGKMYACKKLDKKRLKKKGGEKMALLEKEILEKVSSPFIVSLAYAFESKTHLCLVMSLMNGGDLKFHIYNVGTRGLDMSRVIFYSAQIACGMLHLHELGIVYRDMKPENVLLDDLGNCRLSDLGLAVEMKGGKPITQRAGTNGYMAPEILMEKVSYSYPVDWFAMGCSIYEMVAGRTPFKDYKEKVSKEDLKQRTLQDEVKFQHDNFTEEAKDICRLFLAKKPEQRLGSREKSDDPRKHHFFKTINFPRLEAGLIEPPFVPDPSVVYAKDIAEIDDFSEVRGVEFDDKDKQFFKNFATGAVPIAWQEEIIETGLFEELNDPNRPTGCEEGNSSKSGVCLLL
Chain of Mitogen-activated protein kinase kinase kinase 2 (Homo sapiens) (Q9Y2U5 whole entry): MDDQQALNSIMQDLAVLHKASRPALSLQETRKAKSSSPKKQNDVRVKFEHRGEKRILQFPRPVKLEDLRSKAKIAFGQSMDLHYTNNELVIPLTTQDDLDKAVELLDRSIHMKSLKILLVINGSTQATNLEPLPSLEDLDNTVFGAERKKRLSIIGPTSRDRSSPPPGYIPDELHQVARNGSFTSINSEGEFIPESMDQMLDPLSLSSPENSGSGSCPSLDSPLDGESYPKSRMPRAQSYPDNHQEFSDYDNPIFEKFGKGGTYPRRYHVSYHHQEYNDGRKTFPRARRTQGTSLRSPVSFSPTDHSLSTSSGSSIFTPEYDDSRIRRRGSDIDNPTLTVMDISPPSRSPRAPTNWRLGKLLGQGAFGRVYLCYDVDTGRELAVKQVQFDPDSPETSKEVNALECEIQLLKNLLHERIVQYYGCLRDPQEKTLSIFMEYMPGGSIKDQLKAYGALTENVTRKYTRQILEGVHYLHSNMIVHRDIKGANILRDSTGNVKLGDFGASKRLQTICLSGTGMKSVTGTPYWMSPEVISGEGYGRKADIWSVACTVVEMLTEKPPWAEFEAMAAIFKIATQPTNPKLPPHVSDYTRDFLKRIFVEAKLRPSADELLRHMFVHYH
Chain of Megakaryocyte-associated tyrosine-protein kinase (Homo sapiens) (P42679 whole entry, the tested form may be a part): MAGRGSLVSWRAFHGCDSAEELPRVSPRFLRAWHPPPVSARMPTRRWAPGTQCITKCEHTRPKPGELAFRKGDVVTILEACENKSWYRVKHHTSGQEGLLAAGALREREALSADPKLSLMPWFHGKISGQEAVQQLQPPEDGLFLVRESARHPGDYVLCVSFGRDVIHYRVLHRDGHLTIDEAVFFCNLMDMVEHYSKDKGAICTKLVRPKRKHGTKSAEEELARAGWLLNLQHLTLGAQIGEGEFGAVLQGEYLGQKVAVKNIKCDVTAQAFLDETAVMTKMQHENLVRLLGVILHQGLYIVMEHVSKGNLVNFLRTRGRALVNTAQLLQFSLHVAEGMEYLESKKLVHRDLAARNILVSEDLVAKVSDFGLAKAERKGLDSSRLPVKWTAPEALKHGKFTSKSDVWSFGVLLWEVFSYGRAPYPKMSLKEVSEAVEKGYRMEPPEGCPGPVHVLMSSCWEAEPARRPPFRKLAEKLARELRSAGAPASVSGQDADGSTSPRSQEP
Chain of Cyclin-dependent kinase 8 (Homo sapiens) (P49336 whole entry): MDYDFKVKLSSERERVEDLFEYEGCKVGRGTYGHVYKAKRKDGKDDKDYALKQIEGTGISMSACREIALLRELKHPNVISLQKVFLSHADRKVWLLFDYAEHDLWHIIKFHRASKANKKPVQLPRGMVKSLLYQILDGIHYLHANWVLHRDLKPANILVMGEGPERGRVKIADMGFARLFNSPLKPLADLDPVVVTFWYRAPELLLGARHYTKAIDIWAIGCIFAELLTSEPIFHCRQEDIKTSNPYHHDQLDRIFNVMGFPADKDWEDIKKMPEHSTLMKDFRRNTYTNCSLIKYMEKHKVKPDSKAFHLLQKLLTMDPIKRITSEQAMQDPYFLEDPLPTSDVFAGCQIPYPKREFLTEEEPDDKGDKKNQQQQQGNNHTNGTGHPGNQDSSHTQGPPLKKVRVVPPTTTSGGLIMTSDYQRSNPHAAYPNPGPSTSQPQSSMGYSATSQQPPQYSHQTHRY

For `CCOC(=O)c1cc2cc(-c3cc(C(=O)NCc4ccc(C(=O)O)cc4)nn3C)ccc2[nH]1` [BI 4394], which Ki (D(1B) dopamine receptor) is on record?
The Ki was 10 µM.

And the residual activity [1]?
Its residual activity is 100%.

What about the residual activity [2] of the same molecule?
Its residual activity is 59%.

What about the residual activity [3] of the same molecule?
The residual activity was 91%.

And the residual activity [4]?
The residual activity was 99%.

And the residual activity [5]?
The residual activity was 91%.

And the residual activity [6]?
Its residual activity is 77%.

And the residual activity [7]?
The residual activity was 90%.

What about the residual activity [8] of the same molecule?
Its residual activity is 62%.

And the residual activity [9]?
Its residual activity is 89%.

And the residual activity [10]?
The residual activity was 96%.

What about the residual activity [11] of the same molecule?
Its residual activity is 100%.

What about the residual activity [12] of the same molecule?
Its residual activity is 94%.

What about the residual activity [13] of the same molecule?
The residual activity was 91%.

And the residual activity [14]?
The residual activity was 89%.

And the residual activity [15]?
Its residual activity is 94%.

What about the residual activity [16] of the same molecule?
The residual activity was 85%.

What about the residual activity [17] of the same molecule?
Its residual activity is 86%.

What about the residual activity [18] of the same molecule?
The residual activity was 91%.

And the residual activity [19]?
The residual activity was 100%.

What about the residual activity [20] of the same molecule?
Its residual activity is 100%.

And the residual activity [21]?
The residual activity was 100%.

What about the residual activity [22] of the same molecule?
The residual activity was 100%.

What about the residual activity [23] of the same molecule?
The residual activity was 100%.

And the residual activity [24]?
Its residual activity is 81%.

What about the residual activity [25] of the same molecule?
Its residual activity is 88%.

What about the residual activity [26] of the same molecule?
Its residual activity is 100%.

What about the residual activity [27] of the same molecule?
The residual activity was 84%.

What about the residual activity [28] of the same molecule?
The residual activity was 100%.

What about the residual activity [29] of the same molecule?
The residual activity was 70%.

What about the residual activity [30] of the same molecule?
Its residual activity is 93%.

And the residual activity [31]?
Its residual activity is 100%.

And the residual activity [32]?
The residual activity was 88%.

And the residual activity [33]?
Its residual activity is 80%.

What about the residual activity [34] of the same molecule?
The residual activity was 97%.

And the residual activity [35]?
Its residual activity is 89%.

What about the residual activity [36] of the same molecule?
The residual activity was 100%.

And the residual activity [37]?
The residual activity was 80%.

And the inhibition [38]?
The inhibition was 6.37%.

And the inhibition (Rattus norvegicus)?
The inhibition was -1.91%.

How did the Ki (D(1B) dopamine receptor) turn out when `Cn1nc(C(=O)NCc2ccc(C(=O)O)cc2)cc1-c1ccc2[nH]ccc2c1` [BI 4395] was run?
The Ki was 10 µM.

And the residual activity [1]?
Its residual activity is 62%.

And the residual activity [2]?
Its residual activity is 98%.

And the residual activity [3]?
Its residual activity is 100%.

What about the residual activity [4] of the same molecule?
Its residual activity is 100%.

What about the residual activity [5] of the same molecule?
The residual activity was 74%.

What about the residual activity [6] of the same molecule?
The residual activity was 77%.

And the residual activity [7]?
Its residual activity is 91%.

What about the residual activity [8] of the same molecule?
Its residual activity is 100%.

And the residual activity [9]?
Its residual activity is 69%.

What about the residual activity [10] of the same molecule?
Its residual activity is 86%.

And the residual activity [11]?
The residual activity was 89%.

What about the residual activity [12] of the same molecule?
The residual activity was 92%.

What about the residual activity [13] of the same molecule?
Its residual activity is 100%.

What about the residual activity [14] of the same molecule?
The residual activity was 100%.

And the residual activity [15]?
The residual activity was 95%.

What about the residual activity [16] of the same molecule?
The residual activity was 90%.

And the residual activity [17]?
Its residual activity is 100%.

And the residual activity [18]?
Its residual activity is 71%.

And the residual activity [19]?
The residual activity was 100%.

And the residual activity [20]?
Its residual activity is 81%.

What about the residual activity [21] of the same molecule?
The residual activity was 75%.

And the residual activity [22]?
The residual activity was 40%.

And the residual activity [23]?
Its residual activity is 100%.

And the residual activity [24]?
Its residual activity is 95%.

What about the residual activity [25] of the same molecule?
The residual activity was 100%.

And the residual activity [26]?
Its residual activity is 100%.

What about the residual activity [27] of the same molecule?
The residual activity was 77%.

What about the residual activity [28] of the same molecule?
Its residual activity is 91%.

And the residual activity [29]?
Its residual activity is 94%.

What about the residual activity [30] of the same molecule?
The residual activity was 78%.

And the residual activity [31]?
Its residual activity is 100%.

And the residual activity [32]?
The residual activity was 91%.

And the residual activity [33]?
The residual activity was 92%.

What about the residual activity [34] of the same molecule?
The residual activity was 93%.

What about the residual activity [35] of the same molecule?
Its residual activity is 74%.

What about the residual activity [36] of the same molecule?
Its residual activity is 100%.

And the residual activity [37]?
The residual activity was 93%.

What about the inhibition [38] of the same molecule?
Its inhibition is 10.3%.

What about the inhibition (Rattus norvegicus) of the same molecule?
Its inhibition is 6.39%.
